Tested on: AVL3-EBV B cells
Assay: Peptide sensitization of EBV-transformed B cells to lysis by CTL 13 (51Cr release)
Format: cell-based, human
Conditions: 51Cr-labeled cells incubated 30 min at 20° C. with peptide; effector:target 5:1; chromium release after 4 hr; read-out: half-maximal effect for sensitizing AVL3-EBV B cells to lysis by CTL clone 13
Protocol: Sensitivity of target cells to lysis by the CTL was evaluated by a standard ^51Cr-release assay over 4 hr. Some lysis assays were performed in the presence of the following murine monoclonal antibodies: BB7.2, an IgG2b anti-HLA-A2 (from the ATCC), and OKM1, an IgG2b anti-CD11b (from the ATCC).
One of them, MLAVISCAV (SEQ ID NO:9), was contained within an open reading frame starting with an initiation codon preceeded by a canonical Kozak consensus sequence. This peptide sensitized AVL3-EBV B cells to lysis by CTL clone 13, with an half-maximal effect at 5 nM (FIG. 4). ^51Cr-labeled EBV-transformed B cells from patient AVL3 were incubated for 30 min at 20° C. with the indicated concentrations of peptide. CTL 13 were then added at an effector:target ratio of 5:1, and chromium release was measured after 4 hr.

Sequence: MLAVISCAV
- EC50: 5 nM

Source: patent US6770456B1, “Endogenous retrovirus tumor associated nucleic acids and antigens” (Ludwig Institute for Cancer Research, priority 1998, dated 2004)
